Data set [1] in a line: -Log C was determined by performing the foot shock test. Format: ADME. Also noted: unit not given here.
The nature of data set [2]: -Log C was determined by performing the maximum electroshock test. The data set is classed as ADME. Also noted: unit not given here.
Data set [3] is described as follows: -Log C was determined by performing the pentylenetetrazole test. Format: ADME. More on the design: unit not given here.
Data set [4] in a line: -Log C was determined by performing the electroshock minimum test. The data set is classed as ADME. Also noted: unit not given here.
A short description of data set [5]: -Log C was determined by performing the incl screen test. Format: ADME. More on the design: unit not given here.
The test system of data set [6] is Trichophyton benhamiae. The data set can be described thus: The compound was evaluated for activity against Trichophyton mentagrophytes. Format: functional, Arthroderma benhamiae.
For data set [7], the system named is Albifimbria verrucaria. The data set can be described thus: (§1) The compound was evaluated for activity against Myrothecium verrucaria. Format: functional. Also noted: unit not given here.
For data set [8], the system named is Aspergillus oryzae. The data set can be described thus: The compound was evaluated for activity against Aspergillus oryzae. More on the design: unit not given here. The data set is classed as functional.
For data set [9], the system named is Trichoderma viride. The data set can be described thus: The compound was evaluated for activity against Trichoderma viride. Format: functional. More on the design: unit not given here.
Data set [10] concerns Aspergillus niger. The data set can be described thus: The compound was evaluated for activity against Aspergillus niger. Format: functional.
Data set [11] deals with Albifimbria verrucaria. Described as §1. Format: functional.

Each structure is given as a SMILES string.

Take `Cc1ccccc1C1=NCC(=O)Nc2ccc(Cl)cc21`: the “-Log C” value in data set [1] worked out at 0.45; in [2] it was 1.13; in data set [3] it was 1.57; in data set [4] it was 0.19; in data set [5], 0.28.
Take `CN1C(=O)CN=C(c2ccccc2)c2cc(C#N)ccc21`: the “-Log C” value in data set [1] is given as 1.74; in data set [2], 1.29; in [3], 2.36; in data set [4], 0.14; in data set [5], 1.14.
On to `Oc1c(Br)cc(I)c2cccnc12`, for which the “-Log C” value in data set [6] is 2.24 mM l-1; in data set [7], 2.24; in [8], 1.85; in [9] it was 2.24; in data set [10] it was 2.07 mM l-1.
As to `CN(C)c1ccc2c(c1)C(c1ccccc1)=NCC(=O)N2C`, the “-Log C” value in data set [1] came out at 0.87; in [2], 0.5; in data set [3], 1.7; in data set [4] it was 0.06; in data set [5], 0.29.
Regarding `Oc1c(F)ccc2cccnc12`, the “-Log C” value worked out at 1.92 mM l-1 in data set [6], 1.32 mM l-1 in data set [10] and 1.75 mM l-1 in data set [11].
Regarding `Cc1ccc2c(c1)C(c1ccccc1)=NCC(=O)N2`, the “-Log C” value in data set [1] amounted to 0.4; in [2] it was 1.75; in data set [3], 1.55; in data set [4] it was 0.51; in data set [5] it was 0.4.
In the case of `O=C1CN=C(c2ccccc2)c2cc(C(F)(F)F)ccc2N1` [RO-052904], the “-Log C” value in [1] came out at 1.48; in [2], 1.78; in [3] it was 2.48; in data set [4] it was 1.16; in data set [5], 1.48.
On to `CC(C)(C)N1C(=O)CN=C(c2ccccc2)c2cc(Cl)ccc21`, for which the “-Log C” value in data set [1] worked out at 0.51; in data set [2], 0.26; in data set [3], 0.39; in data set [4], 0.39; in data set [5] it was 0.19.
In the case of `Oc1c(I)ccc2cccnc12`, the “-Log C” value in [6] was found to be 2.43 mM l-1; in data set [7], 2.43; in [8], 1.48; in [9], 2.43; in data set [10], 2.13 mM l-1.
For `CCN1C(=O)CN=C(c2ccccc2)c2cc(Cl)ccc21`, the “-Log C” value was found to be 1.17 in data set [1]; 1.56 in [2]; 1.87 in [3]; 0.3 in [4]; 0.6 in data set [5].
`COc1ccccc1C1=NCC(=O)Nc2ccc(Cl)cc21`: the “-Log C” value in data set [1] is 0.48; in [2], 1; in data set [3], 1.6; in data set [4], 0.35; in data set [5] it was 0.
In the same order, the values of `CN(C)c1ccc2c(c1)C(c1ccccc1)=NCC(=O)N2` are 0.45, 0.12, 0.82, 0.38 and 0.25.
As for `O=[N+]([O-])c1cc(Br)c2cccnc2c1O`, the “-Log C” value in data set [6] is 2.43 mM l-1; in data set [7] it was 1.13; in data set [8], 0.66; in data set [9] it was 1.13; in [10], 0.62 mM l-1.
Consider `N#Cc1ccc2c(c1)C(c1ccccc1)=NCC(=O)N2`, for which the “-Log C” value in data set [1] is 0.82; in data set [2], 0.89; in [3], 2.3; in [4], 0.41; in data set [5] it was 0.54.
Regarding `Oc1c(Br)cc(F)c2cccnc12`, the “-Log C” value in data set [6] was found to be 2.39 mM l-1; in [7], 2.39; in data set [8] it was 1.67; in data set [9] it was 2.39; in data set [10], 1.92 mM l-1.
For `Oc1c(F)cc(Br)c2cccnc12`, the “-Log C” value came out at 2.39 mM l-1 in [6]; 2.39 in data set [7]; 1.62 in data set [8]; 1.92 in data set [9]; 1.92 mM l-1 in [10].
In the same order, the values of `O=[N+]([O-])c1cc(I)c2cccnc2c1O` are 1.89 mM l-1, 0.6, 0.57, 0.89 and 0.7 mM l-1.
For `Oc1c(Cl)cc(F)c2cccnc12`, in that order: 2.3 mM l-1, 2.29, 1.7, 2.29 and 1.82 mM l-1.
As to `Oc1c(Cl)cc(Br)c2cccnc12`, the “-Log C” value amounted to 2.41 mM l-1 in [6]; 2.41 in data set [7]; 1.82 in [8]; 2.41 in data set [9]; 2.11 mM l-1 in data set [10].
Take `O=[N+]([O-])c1cc(F)c(O)c2ncccc12`: the “-Log C” value stood at 2.32 mM l-1 in data set [6]; 1.21 in [7]; 0.68 in [8]; 1.32 in data set [9]; 0.44 mM l-1 in [10].

For the origin of these results see ChEMBL document CHEMBL1121427, “Decomposition of pharmacological activity indices into mutually independent components using principal component analysis” (J Med Chem, 1980).
